# Structures can show the parent of a compound that is named as a salt.
# Test system: muscarinic receptors
# Assay: not given
# Details: in words; cited from earlier work
row,SMILES,separation between central and peripheral muscarinic effects
1,CC(=O)OC1CN2CCC1CC2 (stereo not shown) [3-acetoxy-quinuclidine],the same as indicated for arecoline
2,"COC(=O)C1=CCCN(C)C1 [arecoline, methyl 1-methyl-1,2,5,6-tetrahydropyridine-3-carboxylate]",small separation between central and peripheral muscarinic effects

# Test system: not given
# Assay: not given
# Details: in words; cited from earlier work
row,SMILES,biological half life
1,CC(=O)OC1CN2CCC1CC2 (stereo not shown) [3-acetoxy-quinuclidine],the same as indicated for arecoline
2,"COC(=O)C1=CCCN(C)C1 [arecoline, methyl 1-methyl-1,2,5,6-tetrahydropyridine-3-carboxylate]",very short biological half life

# Target: muscarinic acetylcholine receptors
# Assay: Inhibition of specific binding of 3H-Oxotremorine-M (3H-Oxo)
# Set-up: species or system rat (male Wistar
# Details: rat cortex; 3H-Oxotremorine 1.0 nM; 20 mM Hepes pH 7.4; 30 min at 25° C.
# Protocol: The pharmacological properties of the compounds of the present invention (Formula I) can be illustrated by determining their capability to inhibit the specific binding of ^3 H-Oxotremorine-M (^3 H-Oxo).
# ^3 H-Oxo labels muscarinic receptors in the CNS (with a preference for agonist domaines of the receptors). Three different sites are labelled by 3H-Oxo. These sites have affinity of 1.0, 20 and 3000 nM, respectively. Using the present experimental conditions only the high and medium affinity sites are determined. The inhibitory effects of compounds on ^3 H-Oxo binding reflects the affinity for muscarinic acetylcholine receptors.
# All preparations are performed at 0°-4° C. unless otherwise indicated. Fresh cortex (0.1-1 g) from male Wistar rats (150-250 g) is homogenized for 5-10 s in 10 ml 20 mM Hepes pH: 7.4, with an Ultra-Turrax homogenizer. The homogenizer is rinsed with 10 ml of buffer and the combined suspension centrifuged for 15 min at 40,000×g. The pellet is washed three times with buffer. In each step the pellet is homogenized as before in 2×10 ml of buffer and centrifuged for 10 min at 40,000×g. The final pellet is homogenized in 20 mM Hepes pH: 7.4 (100 ml per g of original tissue) and used for binding assay. Aliquots of 0.5 ml is added 25 μl of test solution and 25 μl of ^3 H-Oxotremorine (1.0 nM, final concentration) mixed and incubated for 30 min at 25° C. Non-specific binding is determined in triplicate using Arecoline (1 μg/ml, final concentration) as the test substance. After incubation samples are added 5 ml of ice-cold buffer and poured directly onto Whatman GF/C glass fiber filters under suction and immediately washed 2 times with 5 ml of ice-cold buffer. The amount of radioactivity on the filters are determined by conventional liquid scintillation counting. Specific binding is total binding minus non-specific binding. Test substances are dissolved in 10 ml water (if necessary heated on a steam-bath for less than 5 minutes) at a concentration of 2.2 mg/ml. 25-75% inhibition of specific binding must be obtained before calculation of IC50.
# The test value will be given as IC50 (the concentration (ng/ml) of the test substance which inhibits the specific binding of ^3 H-Oxo by 50%). [formula] where Co is specific binding in control assays and Cx is the specific binding in the test assay. (The calculations assume normal mass-action kinetics).
row,Inhibition in vitro OXO BINDING (IC50: concentration which inhibits the specific binding of 3H-Oxo by 50%) [µg/mL],SMILES
1,0.0021,"CCC#CCCOc1nonc1C1=CCCN(C)C1.O=C(O)C(=O)O [Compound 56, 3-(4-(3-hexynyloxy)-1,2,5-oxadiazol-3-yl)-1,2,5,6-tetrahydro-1-methylpyridine oxalate]"
2,0.05,"CCCCCCCc1nsnc1C1=CCCN(C)C1 [Compound 58, 3-(4-heptyl-1,2,5-thiadiazol-3-yl)-1,2,5,6-tetrahydro-1-methylpyridinium oxalate]"
3,0.164,"CCCCCCCCc1nsnc1C1=CCCN(C)C1 [Compound 60, 3-(4-octyl-1,2,5-thiadiazol-3-yl)-1,2,5,6-tetrahydro-1-methylpyridinium oxalate]"
4,0.05,"CC(C)Cc1nsnc1C1=CCCN(C)C1 [Compound 61, 3-(4-isobutyl-1,2,5-thiadiazol-3-yl)-1,2,5,6-tetrahydro-1-methylpyridinium oxalate]"
5,0.032,"CN1CCC=C(c2nsnc2CC2CC2)C1 [Compound 62, 3-(4-cyclopropylmethyl-1,2,5-thiadiazol-3-yl)-1,2,5,6-tetrahydro-1-methylpyridinium oxalate]"
6,0.025,"CCCc1nsnc1C1=CCCN(C)C1 [Compound 63, 3-(4-propyl-1,2,5-thiadiazol-3-yl)-1,2,5,6-tetrahydro-1-methylpyridinium oxalate]"
7,0.058,"CCCCCCCCSc1nsnc1C1=CCCN(C)C1.O=C(O)C(=O)O [Compound 64, 3-(4-octylthio-1,2,5-thiadiazol-3-yl)-1,2,5,6-tetrahydro-1-methylpyridine oxalate]"
8,0.0006,"CCSc1nsnc1C1=CCCN(C)C1.O=C(O)C(=O)O [Compound 65, 3-(4-ethylthio-1,2,5-thiadiazol-3-yl)-1,2,5,6-tetrahydro-1-methylpyridine oxalate]"
9,0.0018,"CCCCCSc1nsnc1C1=CCCN(C)C1 [Compound 66, 3-(4-pentylthio-1,2,5-thiadiazol-3-yl)-1,2,5,6-tetrahydro-1-methylpyridineoxalate]"
10,0.0016,"CCCCCCSc1nsnc1C1=CCCN(C)C1.O=C(O)C(=O)O [Compound 67, 3-(4-hexylthio-1,2,5-thiadiazol-3-yl)-1,2,5,6-tetrahydro-1-methylpyridine oxalate]"

# The next lines start with the compound.
row,SMILES,Inhibition in vitro OXO BINDING (IC50: concentration which inhibits the specific binding of 3H-Oxo by 50%) [µg/mL]
1,"CSc1nsnc1C1=CCCN(C)C1 [Compound 49, 3-(4-methylthio-1,2,5-thiadiazol-3-yl)-1,2,5,6-tetrahydro-1-methylpyridineoxalate]",0.0007
2,"CN1CCC=C(c2nonc2N)C1.O=C(O)C(=O)O [Compound 50, 3-(4-amino-1,2,5-oxadiazol-3-yl)-1,2,5,6-tetrahydro-1-methylpyridine oxalate]",0.3
3,"CC(=O)Nc1nonc1C1=CCCN(C)C1 [Compound 51, 3-(4-acetylamino-1,2,5-oxadiazol-3-yl)-1,2,5,6-tetrahydro-1-methylpyridineoxalate]",0.3
4,"CN1CCC=C(c2nonc2Cl)C1.O=C(O)C(=O)O [Compound 52, 3-(4-chloro-1,2,5-oxadiazol-3-yl)-1,2,5,6-tetrahydro-1-methylpyridine oxalate]",0.065
5,"CN1CCC=C(c2cnon2)C1.O=C(O)C(=O)O [Compound 53, 3-(1,2,5-oxadiazol-3-yl)-1,2,5,6-tetrahydro-1-methylpyridine oxalate]",0.0012
6,"CCCCCCOc1nonc1C1=CCCN(C)C1.O=C(O)C(=O)O [Compound 54, 3-(4-hexyloxy-1,2,5-oxadiazol-3-yl)-1,2,5,6-tetrahydro-1-methylpyridine oxalate]",0.02
7,"CCCCOc1nonc1C1=CCCN(C)C1.O=C(O)C(=O)O [Compound 55, 3-(4-butyloxy-1,2,5-oxadiazol-3-yl)-1,2,5,6-tetrahydro-1-methylpyridine oxalate]",0.008

# Test system: not given
# Assay: not given
# Details: in words; cited from earlier work
# Remark: another data set of the same source
row,SMILES,toxicity
1,CC(=O)OC1CN2CCC1CC2 (stereo not shown) [3-acetoxy-quinuclidine],the same as indicated for arecoline
2,"COC(=O)C1=CCCN(C)C1 [arecoline, methyl 1-methyl-1,2,5,6-tetrahydropyridine-3-carboxylate]",rather toxic compound

# Test system: muscarinic receptors
# Assay: not given
# Details: known; in words; cited from earlier work
row,SMILES,muscarinic agonist or antagonist activity
1,CC(=O)OC1CN2CCC1CC2 (stereo not shown) [3-acetoxy-quinuclidine],muscarinic agonist
2,"COC(=O)C1=CCCN(C)C1 [arecoline, methyl 1-methyl-1,2,5,6-tetrahydropyridine-3-carboxylate]",cholinergic agonist

# Target: muscarinic receptors in the CNS
# Assay: not given
# Details: high affinity site; read-out: affinity of 3H-Oxo, first (high affinity) site; cited from earlier work
row,SMILES,Kd [nM]
1,"C[N+](C)(C)CC#CCN1CCCC1=O [Compound 3H-Oxo, ^3 H-Oxotremorine-M]",1

# Same assay, conditions: medium affinity site; read-out: affinity of 3H-Oxo, second (medium affinity) site; cited from earlier work
row,SMILES,Kd [nM]
1,"C[N+](C)(C)CC#CCN1CCCC1=O [Compound 3H-Oxo, ^3 H-Oxotremorine-M]",20

# Same assay, conditions: third site; not determined under the present experimental conditions; read-out: affinity of 3H-Oxo, third site; cited from earlier work
row,SMILES,Kd [nM]
1,"C[N+](C)(C)CC#CCN1CCCC1=O [Compound 3H-Oxo, ^3 H-Oxotremorine-M]",3000
